This note sets out measurements from patent publication US20040063745A1, “2-amino-4-(pyridin-2-yl)-thiazole derivatives as transforming growth factor beta (tgf-beta) inhibitors” (priority 2001, published 2004).

The structures appear in SMILES notation. pIC50: −log10 of the molar value.

This experiment deals with TAG-β signalling (PAI-1 promoter, HepG2 cells). Briefly: Assay 1: PAI-1 promoter luciferase reporter assay in HepG2 cells exposed to TAG-β. The class given is cell-based. The conditions noted are these: for pIC50: Homo sapiens, HepG2. How it is done:
The assay was performed in HepG2 cells stably transfected with the PAI-1 promoter (known to be a strong TAG-β responsive promoter) linked to a luciferase (firefly) reporter gene. The compounds were selected on their ability to inhibit luciferase activity in cells exposed to TAG-β. In addition cells were transfected with a second luciferase (Renilla) gene which was not driven by a TAG-β responsive promoter and was used as a toxicity control.
(96 well-)microplates are seeded, using a multidrop apparatus, with the stably transfected cell line at a concentration of 35000 cells per well in 200 μl of serum-containing medium. These plates are placed in a cell incubator.
18 to 24 hours later (Day 2), cell-incubation procedure is launched. Cells are incubated with TAG-β and a candidate compound (TAG-β inhibitor) at concentrations in the range 50 nM to 10 μM (final concentration of DMSO 1%). The final concentration of TAG-β(rhTGFβ-1) used in the test is 1 ng/mL. Cells are incubated with a candidate compound 15-30 mins prior to the addition of TAGβ. The final volume of the test reaction is 150 μl. Each well contains only one candidate compound and its effect on the PAI-1 promoter is monitored.
Columns 11 and 12 are employed as controls. Column 11 contains 8 wells in which the cells are incubated in the presence of TAGβ, without a candidate compound. Column 11 is used to determine the ‘reference TAG-β induced firefly luciferase value’ against which values measured in the test wells (to quantify inhibitory activity) may be compared. In wells A12 to D12, cells are grown in medium without TAG-β. The firefly luciferase values obtained from these positions are representive of the ‘basal firefly luciferase activity’. In wells E12 to H12, cells are incubated in the presence of TAG-β and 500 μM CPO (Cyclopentenone, Sigma), a cell toxic compound.
12 to 18 hours later (day 3), the luciferase quantification procedure is launched. The following reactions are performed using reagents obtained from a Dual Luciferase Assay Kit (Promega). Cells are washed and lysed with the addition of 10 μl of passive lysis buffer (Promega). Following agitation (15 to 30 mins), luciferase activities of the plates are read in a dual-injector luminometer (BMG lumistar). For this purpose, 50 μl of luciferase assay reagent and 50 μl of ‘Stop & Glo’ buffer are injected sequentially to quantify the activities of both luciferases. The mean Luciferase activity value obtained in wells A11 to H11 (Column 11, TAG-β only) is considered to represent 100% and values obtained in wells A12 to D12 (cells in medium alone) gives a basal level (0%). For each of the compounds tested, a concentration response curve is constructed from which an IC50 value can be determined graphically.
A general note: Reporter assays use an easily measured gene product as a stand-in for the process of interest.

What is called pIC50 is −log10 of the IC50, conventionally taken in molar units. Read a high pIC50 as a low IC50. For `Nc1nc(-c2ccccn2)c(-c2ccc3ncccc3n2)s1` [Example 2, 5-([1,5]Naphthyridin-2-yl)4-pyridin-2-yl-1,3-thiazol-2-amine], the negative-log IC50 (pIC50) is ≥ 5.30.

In the case of `O=C1C=CCC1` [CPO, Cyclopentenone, reference compound], the “firefly and renilla luciferase activities relative to column 11 (TAG-β only)” value (500 μM CPO with TAG-β, toxicity control wells E12 to H12) is reported as “around 50%”. For `Nc1nc(-c2ccccn2)c(-c2ccnc3ccccc23)s1` [Example 1, 4-(Pyridin-2-yl)-5-quinolin-4-yl-1,3-thiazol-2-amine], the negative logarithm of the IC50 (pIC50) was ≥ 5.30. Still for that read-out and setting: next, `Cc1cccc(-c2nc(N)sc2-c2ccc3ncccc3n2)n1` [Example 3, 4-(6-Methyl-pyridin-2-yl)-5-([1,5]naphthyridin-2-yl)-1,3-thiazol-2-amine]: ≥ 5.30.
